Assay results from US20250257055A1, “TERTIARY AMIDE DERIVATIVES SUBSTITUTED WITH 4-MEMBERED RING STRUCTURE” (Sumitomo Pharma Co., Ltd., priority 2024, published 2025).
In brackets after ≈: the same amount, converted by molar mass. Where two headings read alike, the source gives them in different places.

What was measured:
[1] = Membrane permeability test (PAMPA); type: in vitro ADME
Procedure: The membrane permeability of the test compound was tested by parallel artificial membrane permeability assay (PAMPA) as follows. 200 μL of System solution (pION Inc.) containing the test compound and 4 μL of GIT Lipid-0 (pION Inc.) were added to the donor plate. 200 μL of Acceptor Sink Buffer (pION Inc.) was added to the acceptor plate. Both plates were overlapped and incubated at 37° C. for 4 hours, after which the UV of the solutions on the acceptor side and donor side was measured using a UV plate reader (190-500 nm). Compounds with poor UV absorption were measured using LC-MS. The permeability coefficient Pe (10^−6 cm/sec) of the drug was calculated using the following equation.

G-401 xenograft = experiment: Drug efficacy evaluation by intravenous administration using G-401 xenograft mice model; type: in vivo
Procedure: G-401 cells (ATCC) were intradermally transplanted into 4-7-week-old BALB/cAnNCrj-nu/nu mice (CAnN.Cg-Foxn1/CrlCrlj, Jackson Laboratory Japan) at 5×10^5 cells/mouse. After confirming the engraftment of G-401 cells 10-40 days after transplantation, the test compound suspended in a solvent such as 10 mmol/L glycine buffer solution (pH 2.0) was administered via the tail vein at least once a week at a dose of 0.015-20 mg/kg. The tumor volume was measured over time from the start of administration, and the effect of tumor volume reduction by administration of the test compound was evaluated. The tumor volume can be calculated from the following equation using the minor axis and major axis of the tumor measured with an electronic caliper (Mitutoyo).
A control administration group administered with only a solvent such as 10 mmol/L glycine buffer solution (pH 2.0) and a test compound administration group were compared, and the antitumor effect was evaluated by calculating T/C from the following equation.

Solubility test = type: physicochemical; settings: for solubility: aqueous buffer, thermodynamic from solid
Procedure: The solubility was measured for Examples 7, 10, 20, 23, 24, and 30 to 34, Comparative Example 1, and Comparative Example 2. The test compound was added to 10 mmol/L glycine buffer (pH 2.0) and 10 mmol/L citrate buffer (pH 3.0), and the mixture was stored in a thermostatic chamber at 5° C. After standing overnight, the mixture was filtered through a membrane filter, and the concentration of the filtrate was measured by HPLC.

[2] = Pharmacokinetic study in mice; type: in vivo; settings: for AUC / clearance / half-life / Vd / Cmax: female, BALB/c (BALB/cAnN CrlCrlj), mouse, plasma; for Vd: read-out: Vdss
Procedure: The test compound was administered to 7-week-old female BALB/c (BALB/cAnN CrlCrlj) mice intravenously (dosage: 1 mg/kg) in a 50% PEG solution (0.01 mol/L HCl) or orally (dosage: 10 mg/kg) in a 0.5% methylcellulose aqueous solution, and blood was collected at the following times:
Intravenous administration: 5 min, 15 min, 30 min, 1 hr, 2 hr, 4 hr, 6 hr, and 24 hr after administration
Oral administration: 15 min, 30 min, 1 hr, 2 hr, 4 hr, 6 hr, and 24 hr after administration
The collected blood was centrifuged at 3000 rpm×10 min using a refrigerated centrifuge set at 4° C., and the obtained plasma was measured by LC-MS. A calibration curve was prepared from the value (peak ratio) obtained by dividing the peak area of the test substance by the peak area of the internal standard substance in MS and the concentration of the plasma calibration curve sample. The concentration in the sample was calculated from the peak ratio and the calibration curve of each sample.

Kuramochi cells = experiment: Cell proliferation inhibition experiment using Kuramochi cells; type: cell-based; settings: 144 h, cultured for 6 days, CellTiter-Glo
Procedure: Kuramochi cells (derived from ovarian cancer) were obtained from JCRB (Japanese Collection of Research Bioresources) cell bank. Kuramochi cells were cultured in RPMI-1640 medium containing 10% fetal bovine serum and 1% penicillin/streptomycin under conditions of 37° C. and 5% CO2.
(§1) 500 cells per well were seeded in a 384-well plate. One day after seeding, Examples 3, 7, 9, 10, 11, 20, 23 to 25, and 30 to 34 were added so that the final concentration of DMSO was 0.1%, and the cells were cultured for 6 days. After the culture was completed, the cell viability was measured using CellTiter-Glo Luminescent Cell Viability Assay (Promega, G7570).

recombinant p300 = recombinant p300 (Homo sapiens (Human), UniProt Q09472); experiment: HAT activity inhibition experiment (SensoLyte HAT(p300) Assay Kit); type: biochemical; settings: recombinant p300, histone H3 peptide, acetyl CoA
Procedure: The HAT activity inhibitory ability of HAT inhibitors was evaluated using SensoLyte HAT(p300) Assay Kit (ANASPEC, AS-72172). Specifically, 7.5 μL of the compound of Examples […] diluted with assay buffer was added to 7.5 μL of recombinant p300 solution diluted 10 times with assay buffer, and the mixture was incubated at room temperature for 10 minutes. 7.5 μL of acetyl CoA solution diluted 10 times with assay buffer and 15 μL of histone H3 peptide diluted 10 times with assay buffer were added thereto, and the mixture was incubated at 37° C. for 30 minutes. 37.5 μL of Stop Solution was added to stop the reaction. 75 μL of p300 Developer solution diluted 50 times with assay buffer was added, and the mixture was incubated at room temperature for 30 minutes under light-shielded conditions. The fluorescence at 513 nm when irradiated with 389 nm excitation light was measured using a multiplate reader.

G-401 cells = experiment: Cell proliferation inhibition experiment using G-401 cells; type: cell-based; settings: Homo sapiens, 72 h, cultured for 3 days, CellTiter-Glo
Procedure: G-401 cells (derived from malignant rhabdoid tumor) were obtained from the American Type Culture Collection (ATCC). G-401 cells were cultured in McCoy's 5A medium containing 10% fetal bovine serum and 1% penicillin/streptomycin under conditions of 37° C. and 5% CO2.
as §1, with “1” for “3, 7, 9, 10, 11, 20, 23”, “35” for “25, and 30 to 34”, “3” for “6”

RMGI cells = experiment: Cell proliferation inhibition experiment using RMGI cells; type: cell-based; settings: Homo sapiens, RMG-I, 144 h, cultured for 6 days, CellTiter-Glo
Procedure: RMGI cells (derived from ovarian cancer) were obtained from JCRB cell bank. RMGI cells were cultured in Ham's F12 medium containing 10% fetal bovine serum and 1% penicillin/streptomycin under conditions of 37° C. and 5% CO2.
as §1, with “200” for “500”, “20, and” for “20,”, “25” for “25, and 30 to 34”

[3] = pH 5.0, 37° C., read-out: pH 5.0 Pe
[4] = pH 7.4, 37° C., read-out: pH 7.4 Pe
[5] = 10 mmol/L citrate buffer (pH 3.0), 5° C., overnight, read-out: Solubility in pH 3.0 buffer
[6] = 10 mmol/L glycine buffer (pH 2.0), 5° C., overnight, read-out: Solubility in pH 2.0 buffer

Sequence of recombinant p300 (Q09472 whole entry): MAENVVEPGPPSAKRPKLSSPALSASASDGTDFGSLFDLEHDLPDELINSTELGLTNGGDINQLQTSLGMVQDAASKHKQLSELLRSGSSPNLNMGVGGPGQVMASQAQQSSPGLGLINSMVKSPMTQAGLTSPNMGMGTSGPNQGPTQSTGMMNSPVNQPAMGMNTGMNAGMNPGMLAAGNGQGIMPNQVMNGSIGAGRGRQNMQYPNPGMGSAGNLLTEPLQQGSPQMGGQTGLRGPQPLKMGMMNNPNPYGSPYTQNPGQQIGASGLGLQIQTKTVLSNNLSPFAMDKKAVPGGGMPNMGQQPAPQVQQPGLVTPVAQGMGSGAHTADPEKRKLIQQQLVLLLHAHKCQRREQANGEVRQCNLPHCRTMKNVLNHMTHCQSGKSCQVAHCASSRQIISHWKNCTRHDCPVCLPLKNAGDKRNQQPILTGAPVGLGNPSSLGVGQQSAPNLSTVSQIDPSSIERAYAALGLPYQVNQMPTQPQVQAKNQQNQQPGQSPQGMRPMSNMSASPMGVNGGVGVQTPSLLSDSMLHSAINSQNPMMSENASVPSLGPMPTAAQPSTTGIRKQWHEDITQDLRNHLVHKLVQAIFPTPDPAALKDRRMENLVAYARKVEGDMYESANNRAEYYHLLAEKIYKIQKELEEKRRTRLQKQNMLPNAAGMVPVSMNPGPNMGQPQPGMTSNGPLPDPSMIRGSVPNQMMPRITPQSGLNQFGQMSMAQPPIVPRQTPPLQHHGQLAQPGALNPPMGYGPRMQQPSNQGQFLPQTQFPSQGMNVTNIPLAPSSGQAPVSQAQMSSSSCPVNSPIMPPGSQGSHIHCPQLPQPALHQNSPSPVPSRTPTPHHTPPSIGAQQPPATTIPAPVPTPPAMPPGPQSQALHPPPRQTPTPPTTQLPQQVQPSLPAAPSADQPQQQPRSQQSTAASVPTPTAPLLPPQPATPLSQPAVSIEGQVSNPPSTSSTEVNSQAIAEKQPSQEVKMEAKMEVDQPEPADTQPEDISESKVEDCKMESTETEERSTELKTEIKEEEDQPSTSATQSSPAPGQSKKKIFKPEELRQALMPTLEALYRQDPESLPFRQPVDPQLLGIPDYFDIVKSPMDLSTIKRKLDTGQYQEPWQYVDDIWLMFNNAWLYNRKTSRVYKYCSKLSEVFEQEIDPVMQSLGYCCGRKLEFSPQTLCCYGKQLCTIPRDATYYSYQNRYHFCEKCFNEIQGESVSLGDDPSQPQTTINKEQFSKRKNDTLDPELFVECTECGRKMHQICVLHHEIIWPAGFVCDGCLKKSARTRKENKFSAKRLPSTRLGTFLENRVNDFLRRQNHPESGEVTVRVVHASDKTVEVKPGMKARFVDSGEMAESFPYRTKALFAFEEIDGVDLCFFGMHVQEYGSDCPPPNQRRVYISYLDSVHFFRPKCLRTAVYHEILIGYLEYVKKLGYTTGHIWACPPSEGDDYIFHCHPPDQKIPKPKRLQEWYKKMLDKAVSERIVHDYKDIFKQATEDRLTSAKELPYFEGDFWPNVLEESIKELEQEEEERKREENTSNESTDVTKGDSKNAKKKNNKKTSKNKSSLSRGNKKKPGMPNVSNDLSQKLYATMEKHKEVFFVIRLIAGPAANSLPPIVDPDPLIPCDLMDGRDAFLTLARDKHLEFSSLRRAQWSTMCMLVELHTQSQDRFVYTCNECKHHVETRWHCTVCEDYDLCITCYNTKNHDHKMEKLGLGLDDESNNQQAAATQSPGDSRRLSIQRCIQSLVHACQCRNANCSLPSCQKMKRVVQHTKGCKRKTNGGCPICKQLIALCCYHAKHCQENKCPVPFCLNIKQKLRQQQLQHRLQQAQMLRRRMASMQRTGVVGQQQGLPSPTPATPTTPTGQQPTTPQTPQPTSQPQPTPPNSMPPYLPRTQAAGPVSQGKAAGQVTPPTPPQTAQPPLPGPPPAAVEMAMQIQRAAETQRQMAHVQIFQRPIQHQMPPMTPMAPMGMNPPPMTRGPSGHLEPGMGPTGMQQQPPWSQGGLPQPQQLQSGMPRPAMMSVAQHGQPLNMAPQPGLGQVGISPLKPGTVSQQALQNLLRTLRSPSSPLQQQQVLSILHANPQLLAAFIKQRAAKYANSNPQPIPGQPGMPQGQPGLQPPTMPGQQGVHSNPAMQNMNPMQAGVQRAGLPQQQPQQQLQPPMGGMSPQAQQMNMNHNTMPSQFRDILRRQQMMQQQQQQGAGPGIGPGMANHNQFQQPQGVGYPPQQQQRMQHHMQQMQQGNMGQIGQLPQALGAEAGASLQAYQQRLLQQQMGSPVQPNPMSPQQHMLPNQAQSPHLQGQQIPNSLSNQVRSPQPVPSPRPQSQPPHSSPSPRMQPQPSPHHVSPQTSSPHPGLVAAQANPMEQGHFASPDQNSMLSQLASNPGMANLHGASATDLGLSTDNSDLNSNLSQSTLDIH

SMILES | Papp at 4 h [1, 3] [×10⁻⁶ cm/s] | Papp at 4 h [1, 4] [×10⁻⁶ cm/s] | antitumor effect (in words) (G-401 xenograft; G-401 xenograft model, intravenous administration) | T/C (G-401 xenograft; intravenous (tail vein), 0.015 mg/kg, 14 days) [%] | Solubility in pH 3.0 buffer (Solubility test; 10 mmol/L citrate buffer (pH 3.0), 5° C., overnight) [mg/mL] | Solubility in pH 2.0 buffer (Solubility test; 10 mmol/L glycine buffer (pH 2.0), 5° C., overnight) [mg/mL] | solubility (Solubility test; [5]) [µg/mL] | solubility (Solubility test; [6]) [µg/mL] | solubility (in words) (Solubility test; pH 2.0 and pH 3.0 buffers) | AUC ([2]; intravenous, 1 mg/kg) [ng·h/mL] | clearance ([2]; intravenous, 1 mg/kg) [mL/min/kg] | half-life ([2]; intravenous, 1 mg/kg) [h] | Vd ([2]; intravenous, 1 mg/kg) [L/kg] | AUC ([2]; oral, 10 mg/kg) [ng·h/mL] | Cmax ([2]; oral, 10 mg/kg) [ng/mL] | BA ([2]; oral, 10 mg/kg) [%] | IC50 (Kuramochi cells) [nM] | IC50 (recombinant p300) [nM] | IC50 (G-401 cells) [nM] | IC50 (RMGI cells) [nM]
CNC(=O)Cn1cc(-c2ccc3c(c2)[C@H](F)C[C@]32NC(=O)N(CC(=O)N(Cc3ccc(F)cc3)[C@@H](C)C(F)(F)F)C2=O)cn1 [Comparative Example 1, reference compound] | 21.3 | 20.8 | no antitumor effect | −1.1 | 0.005 | 0.002 | 5 (≈ 0.00808 mM) | 2 (≈ 0.00323 mM) | extremely low solubility | – | – | – | – | – | – | – | – | – | – | –
O=C1N[C@]2(C[C@@H](F)c3cc(-c4cnn(C5CN(C6COC6)C5)c4)ccc32)C(=O)N1CC(=O)N(Cc1ccc(F)cc1)C1(C(F)(F)F)COC1 [Example 3, 2-[(1′S,3′R)-3′-fluoro-5′-{1-[1-(oxetan-3-yl)azetidin-3-yl]-1H-pyrazol-4-yl}-2,5-dioxo-2′,3′-dihydrospiro[imidazolidine-4,1′-inden]-1-yl]-N-[(4-fluorophenyl)methyl]-N-[3-(trifluoromethyl)oxetan-3-yl]acetamide] | 14.9 | 17.7 | – | – | – | – | – | – | – | 764 | 20.6 | 1.8 | 2 | 3890 | 2670 | 50.9 | 91 | 0.6 | 44 | 18
O=C1N[C@]2(C[C@@H](F)c3cc(-c4cnn(C5CN(C6COC6)C5)c4)ccc32)C(=O)N1CC(=O)N(Cc1ccc(F)cn1)C1(C(F)(F)F)CC(F)(F)C1 [Example 9, N-[3,3-difluoro-1-(trifluoromethyl)cyclobutyl]-2-[(1′S,3′R)-3′-fluoro-5′-{1-[1-(oxetan-3-yl)azetidin-3-yl]-1H-pyrazol-4-yl}-2,5-dioxo-2′,3′-dihydrospiro[imidazolidine-4,1′-inden]-1-yl]-N-[(5-fluoropyridin-2-yl)methyl]acetamide] | 13.3 | 15.3 | – | – | – | – | – | – | – | 1200 | 11.9 | 2.43 | 2 | 13100 | 5370 | 109.1 | 184 | – | 38 | 24
CN1CC(N(Cc2ccc(F)cc2)C(=O)CN2C(=O)N[C@]3(C[C@@H](F)c4cc(-c5cnn(C(C)(C)C#N)c5)ccc43)C2=O)(C(F)(F)F)C1 [Example 11, 2-{(1′S,3′R)-5′-[1-(2-cyanopropan-2-yl)-1H-pyrazol-4-yl]-3′-fluoro-2,5-dioxo-2′,3′-dihydrospiro[imidazolidine-4,1′-inden]-1-yl}-N-[(4-fluorophenyl)methyl]-N-[1-methyl-3-(trifluoromethyl)azetidin-3-yl]acetamide] | 24.1 | 27.2 | – | – | – | – | – | – | – | 446 | 33.7 | 2.12 | 4.1 | 2500 | 1720 | 56.2 | 48 | 2.1 | 10 | 5
CC(C)n1cc(-c2ccc3c(c2)[C@H](F)C[C@]32NC(=O)N(CC(=O)N(Cc3ccc(F)cn3)C3(C(F)(F)F)CN(C)C3)C2=O)cn1 [Example 33, 2-{(1′S,3′R)-3′-fluoro-2,5-dioxo-5′-[1-(propan-2-yl)-1H-pyrazol-4-yl]-2′,3′-dihydrospiro[imidazolidine-4,1′-inden]-1-yl}-N-[(5-fluoropyridin-2-yl)methyl]-N-[1-methyl-3-(trifluoromethyl)azetidin-3-yl]acetamide] | 22.6 | 27 | – | – | – | – | 8600 (≈ 13.6 mM) | > 10000 | – | – | – | – | – | – | – | – | 24 | 0.2 | 4 | –
CN1CC(N(Cc2ccc(F)cn2)C(=O)CN2C(=O)N[C@]3(C[C@@H](F)c4cc(-c5cnn(C6CCC6)c5)ccc43)C2=O)(C(F)(F)F)C1 [Example 34, 2-[(1′S,3′R)-5′-(1-cyclobutyl-1H-pyrazol-4-yl)-3′-fluoro-2,5-dioxo-2′,3′-dihydrospiro[imidazolidine-4,1′-inden]-1-yl]-N-[(5-fluoropyridin-2-yl)methyl]-N-[1-methyl-3-(trifluoromethyl)azetidin-3-yl]acetamide] | 24.4 | 34.9 | – | – | – | – | 8100 (≈ 12.6 mM) | > 10000 | – | – | – | – | – | – | – | – | 45 | 0.2 | 5 | –
